Reference: US5444043A, “Cyclic heptapeptide anti-inflammatory agent” (The Regents of the University of California, priority 1994, dated 1995)

Experiments:
Format in all cases: in vivo
[1] = system: phorbol-induced inflammation (edema) of mouse ears; test: Inhibition of mouse ear edema, time of addition study; conditions: 50 ug/ear
Procedure: Cyclomarin-A was tested by measuring inhibition of phorbol-induced inflammation (edema) of mouse ears. […] […] PMA alone (2 microgram per ear) or in combination with varying amounts of cyclomarin-A was applied to the left ears of (5 mice per treatment group). Acetone was applied to all right ears. After a 3-hour and 20-minute incubation at 23° C., the mice were sacrificed, the ears removed and bores taken and weighed. Edema was measured by subtracting the weight of the right ear (acetone control) from the weight of the left ear (treated). The results were recorded as a percent decrease (inhibition) or percent increase (potentiation) in edema relative to the PMA control group edema.

[2] = system: phorbol-induced inflammation (edema) of mouse ears; test: Inhibition of phorbol (PMA)-induced mouse ear edema, standard protocol (topical); conditions: for Inhibition of Mouse Ear Edema: 3 h 20 min, relative to PMA control
Procedure: Cyclomarin-A was tested by measuring inhibition of phorbol-induced inflammation (edema) of mouse ears. […] The compound is topically applied in acetone to the inside pinnae of the ears of mice in a solution containing the edema-causing irritant, i.e. phorbol 12-myristate 13-acetate (PMA). PMA alone (2 microgram per ear) or in combination with varying amounts of cyclomarin-A was applied to the left ears of (5 mice per treatment group). Acetone was applied to all right ears. After a 3-hour and 20-minute incubation at 23° C., the mice were sacrificed, the ears removed and bores taken and weighed. Edema was measured by subtracting the weight of the right ear (acetone control) from the weight of the left ear (treated). The results were recorded as a percent decrease (inhibition) or percent increase (potentiation) in edema relative to the PMA control group edema.

[3] = system: phorbol-induced inflammation (edema) of mouse ears; test: Inhibition of mouse ear edema, systemic study (IP); conditions: 1 hour prior

Substance: cyclomarin-A
- Inhibition of Mouse Ear Edema ([1]; time of addition 0 mins): 82.8%
- Inhibition of Mouse Ear Edema ([1]; time of addition +30 mins): 50.9%
- Inhibition of Mouse Ear Edema ([1]; time of addition +60 mins): 12.0%
- Inhibition of Mouse Ear Edema ([1]; time of addition -30 mins): 79.4%
- Inhibition of Mouse Ear Edema ([1]; time of addition -60 mins): 51.8%
- Inhibition of Mouse Ear Edema ([2]; 5 ug/ear topical with PMA 2 microgram per ear): 3.0%
- Inhibition of Mouse Ear Edema ([2]; 10 ug/ear topical with PMA 2 microgram per ear): 39.0%
- Inhibition of Mouse Ear Edema ([2]; 25 ug/ear topical with PMA 2 microgram per ear): 57.0%
- Inhibition of Mouse Ear Edema ([2]; 50 ug/ear topical with PMA 2 microgram per ear): 88.0%
- Inhibition of Mouse Ear Edema ([2]; 100 ug/ear topical with PMA 2 microgram per ear): 96.2%
- topical anti-inflammatory activity ([2]; topical, statement in words): exhibit topical anti-inflammatory activity
- Inhibition of Mouse Ear Edema ([3]; 25 mg/kg IP): 28.0%
- Inhibition of Mouse Ear Edema ([3]; 50 mg/kg IP): 55.0%
- Inhibition of Mouse Ear Edema ([3]; 100 mg/kg IP): 48.0%
